Assay results as given in ChEMBL document CHEMBL5108067, “Discovery of Potent OTUB1/USP8 Dual Inhibitors Targeting Proteostasis in Non-Small-Cell Lung Cancer” (J Med Chem, 2022).
Activity calls are given as the source filed them. No cut-off for these calls is given here.

What was measured:
[1] = target: T1, Ubiquitin carboxyl-terminal hydrolase 8 (Homo sapiens) (UniProt P40818); assay: Destabilization of N-terminal His-6 tagged USP8 (734 to 1110 residues) (unknown origin) expressed in Escherichia coli BL21 (DE3) cells assessed as change in melting temperature at 200 uM measured for 2 hrs in presence of dithiothreitol by SYPRO orange dye based thermal shift assay
T1 sequence (whole entry): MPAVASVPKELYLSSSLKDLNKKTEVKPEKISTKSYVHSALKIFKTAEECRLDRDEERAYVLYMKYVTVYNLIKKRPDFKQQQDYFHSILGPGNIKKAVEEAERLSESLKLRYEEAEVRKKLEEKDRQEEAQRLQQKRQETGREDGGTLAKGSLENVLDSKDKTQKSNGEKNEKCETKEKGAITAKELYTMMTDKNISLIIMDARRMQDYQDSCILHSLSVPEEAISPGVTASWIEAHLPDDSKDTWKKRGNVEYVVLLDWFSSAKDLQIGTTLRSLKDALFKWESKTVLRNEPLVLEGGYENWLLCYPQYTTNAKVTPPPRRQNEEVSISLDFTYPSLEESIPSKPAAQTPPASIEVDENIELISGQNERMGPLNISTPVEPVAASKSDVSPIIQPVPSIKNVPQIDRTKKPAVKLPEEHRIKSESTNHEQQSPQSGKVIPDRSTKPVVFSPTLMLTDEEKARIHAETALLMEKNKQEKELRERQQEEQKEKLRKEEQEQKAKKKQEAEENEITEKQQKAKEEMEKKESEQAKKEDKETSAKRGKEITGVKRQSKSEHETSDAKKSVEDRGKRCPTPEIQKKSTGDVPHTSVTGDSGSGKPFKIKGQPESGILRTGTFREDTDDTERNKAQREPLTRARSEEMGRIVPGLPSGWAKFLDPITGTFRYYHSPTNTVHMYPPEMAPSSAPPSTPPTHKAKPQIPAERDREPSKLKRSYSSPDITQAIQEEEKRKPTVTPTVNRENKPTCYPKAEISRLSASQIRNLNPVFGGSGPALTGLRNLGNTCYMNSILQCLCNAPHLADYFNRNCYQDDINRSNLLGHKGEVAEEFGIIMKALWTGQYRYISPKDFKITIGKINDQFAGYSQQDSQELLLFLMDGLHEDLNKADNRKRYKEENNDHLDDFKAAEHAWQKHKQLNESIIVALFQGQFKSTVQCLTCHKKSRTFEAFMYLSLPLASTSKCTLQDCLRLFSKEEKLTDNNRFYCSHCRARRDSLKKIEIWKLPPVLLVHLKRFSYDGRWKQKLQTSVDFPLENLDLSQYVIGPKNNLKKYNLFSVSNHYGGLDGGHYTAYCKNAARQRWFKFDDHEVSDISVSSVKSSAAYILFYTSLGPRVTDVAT

[2] = target: T2, Ubiquitin thioesterase OTUB1 (Homo sapiens, UniProt Q96FW1); assay: Inhibition of OTUB1 in human NCI-H1975 cells assessed as reduction in protein level at 500 nM measured for 24 hrs by immunoblotting analysis; assay type: cell-based
T2 sequence (Q96FW1 whole entry): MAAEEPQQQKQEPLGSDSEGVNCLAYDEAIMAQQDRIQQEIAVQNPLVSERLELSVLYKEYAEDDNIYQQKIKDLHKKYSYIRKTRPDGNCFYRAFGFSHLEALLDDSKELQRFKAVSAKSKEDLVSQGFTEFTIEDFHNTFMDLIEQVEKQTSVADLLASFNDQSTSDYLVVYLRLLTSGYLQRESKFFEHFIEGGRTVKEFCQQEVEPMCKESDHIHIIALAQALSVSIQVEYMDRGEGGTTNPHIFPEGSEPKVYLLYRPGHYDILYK

[3] = target: T1, Ubiquitin carboxyl-terminal hydrolase 8 (Homo sapiens); assay: Inhibition of USP8 in human NCI-H1975 cells assessed as reduction in protein level at 500 nM measured for 24 hrs by immunoblotting analysis; assay type: cell-based
[4] = Half life in ICR mouse at 1 mg/kg, iv measured upto 1440 mins by LC-MS/MS analysis; assay type: ADME, organism-based; conditions: in vivo, 24 h
[5] = Half life in ICR mouse at 10 mg/kg, po measured upto 1440 mins by LC-MS/MS analysis; assay type: ADME, organism-based; conditions: in vivo
[6] = Tmax in ICR mouse at 10 mg/kg, po measured upto 1440 mins by LC-MS/MS analysis; assay type: ADME, organism-based; conditions: in vivo
[7] = Cmax in ICR mouse at 10 mg/kg, po measured upto 1440 mins by LC-MS/MS analysis; assay type: ADME, organism-based; design: dose 10 mg/kg, time < 1440 min, route po; conditions: in vivo
[8] = AUC in ICR mouse at 1 mg/kg, iv measured upto 1440 mins by LC-MS/MS analysis; assay type: ADME, organism-based; design: time < 1440 min, dose 1 mg/kg, route iv; conditions: in vivo, 24 h
[9] = AUC in ICR mouse at 10 mg/kg, po measured upto 1440 mins by LC-MS/MS analysis; assay type: ADME, organism-based; design: time < 1440 min, dose 10 mg/kg, route po; conditions: in vivo
[10] = Volume of distribution at steady state in ICR mouse at 1 mg/kg, iv measured upto 1440 mins by LC-MS/MS analysis; assay type: ADME, organism-based; conditions: in vivo, 24 h
[11] = Oral bioavailability in ICR mouse at 10 mg/kg measured upto 1440 mins by LC-MS/MS analysis; assay type: ADME, organism-based; conditions: in vivo
[12] = tested on: Mus musculus; assay: In vivo inhibition of OTUB1 in human NCI-H1975 cells xenografted BALB/c nude mouse model assessed as decrease in OTUB1 level at 15 mg/kg/day, po measured after 5 days by Western blot analysis; assay type: functional, organism-based; conditions: time 5.0 day
[13] = tested on: Mus musculus; assay: In vivo inhibition of USP8 in human NCI-H1975 cells xenografted BALB/c nude mouse model assessed as decrease in USP8 level at 15 mg/kg/day, po measured after 5 days by Western blot analysis; assay type: functional, organism-based; conditions: time 5.0 day
[14] = tested on: Mus musculus; assay: In vivo inhibition of OTUB1 in NCI-H1975 cells xenografted BALB/c nude mouse model assessed as decrease in UBE2N level at 15 mg/kg/day, po measured after 5 days by Western blot analysis; assay type: functional, organism-based; conditions: time 5.0 day
[15] = tested on: Mus musculus; assay: In vivo inhibition of USP8 in NCI-H1975 cells xenografted BALB/c nude mouse model assessed as decrease in EGFR level at 15 mg/kg/day, po measured after 5 days by Western blot analysis; assay type: functional, organism-based; conditions: time 5.0 day
[16] = tested on: NCI-H1975; assay: Antitumor activity against human NCI-H1975 cells xenografted in BALB/c nude mouse model assessed as reduction of total tumor weight at 5 mg/kg, ip bid for 2 weeks; assay type: functional, organism-based
[17] = tested on: NCI-H1975; assay: Antitumor activity against human NCI-H1975 cells xenografted in BALB/c nude mouse model assessed as reduction in tumor volume at 5 mg/kg, ip bid for 2 weeks; assay type: functional, organism-based
[18] = target: T2, Ubiquitin thioesterase OTUB1; assay: Inhibition of OTUB1 in human NCI-H1975 cells assessed as reduction in UBE2N protein level at 500 nM measured for 24 hrs by immunoblotting analysis; assay type: cell-based
[19] = target: T1, Ubiquitin carboxyl-terminal hydrolase 8 (Homo sapiens); assay: Inhibition of USP8 in human NCI-H1975 cells assessed as reduction in EGFR protein level at 500 nM measured for 24 hrs by immunoblotting analysis; assay type: cell-based
[20] = tested on: NCI-H1975; assay: Antitumor activity against human NCI-H1975 cells xenografted in BALB/c nude mouse model assessed as reduction of tumor burden at 5 mg/kg, ip qd for 2 weeks; assay type: functional, organism-based
[21] = target: T2, Ubiquitin thioesterase OTUB1; assay: Inhibition of N-terminal His-6 tagged OTUB1 (40 to 271 residues) (unknown origin) expressed in Escherichia coli BL21 (DE3) cells at […] using Ub-Rho measured after 0.5 to 3 hrs by fluorescence based Plate reader method relative to control; conditions: dose 2.5 µM, time 0.5-3 hrs

| SMILES | t1/2 [4] [min] | half-life [5] [min] | Tmax [6] [min] | Cmax [7] [ng/mL] | AUC [8] [ng·h/mL] | AUC at 24 h [9] [ng·h/mL] | Vdss [10] [L/kg] | bioavailability [11] [%] | inhibition [18] | inhibition [19] | also measured |
| --- | --- | --- | --- | --- | --- | --- | --- | --- | --- | --- | --- |
| CN1CC[C@@H](Oc2ccc(F)c(-c3nc4c(o3)C(=O)c3ccccc3C4=O)c2Cl)C1 | 49.8 | 105 | 19.8 | 4270 | 1345 | 3750 | 0.77 | 27.9 | Active | Active | ΔTm [1]: 2 °C; inhibition [2]: Active; inhibition [3]: Active; Activity [12]: Active; Activity [13]: Active; Activity [14]: Active; Activity [15]: Active; Activity [16]: Active; Activity [17]: Active; Activity [20]: Active |
| CN1CC[C@@H](Oc2ccc(Cl)c(-c3nc4c(o3)C(=O)c3ccccc3C4=O)c2)C1 | 51.6 | 86.4 | 19.8 | 313 | 306 | 229 | 2.37 | 7.5 | Active | Active |  |
| O=C1c2ccccc2C(=O)c2oc(-c3cccnc3)nc21 |  |  |  |  |  |  |  |  |  |  | inhibition [21]: 100% |
